Experimental data as given in BindingDB's records for doi:10.1021/jm00024a011 (Boehringer Ingelheim Pharmaceuticals, 1995).

Biological target: T1, Gag-Pol polyprotein [600-1027,R876K]/[600-1155] (Human immunodeficiency virus 1, UniProt P03366, R876K)
T1 construct: 600-1027; 600-1155
Assay: HIV-1 RT Assay

O=C1Nc2c(CO)ccnc2N(C2CC2)c2ncccc21 gave an IC50 (pH 7.8, 22 °C) of 3000 nM.

Compound Nc1ccc(OCc2ccnc3c2NC(=O)c2cccnc2N3C2CC2)cc1 [7-(4-aminophenoxymethyl)-2-cyclopropyl-2,4,9,15-tetraazatricyclo[9.4.0.0^{3,8}]pentadeca-1(11),3,5,7,12,14-hexaen-10-one] has an IC50 of 100 nM.
